The assay concerns the target human NaV 1.8 (Homo sapiens, UniProt Q9Y5Y9). The assay can be described thus: E-VIPR assay detecting and measuring NaV inhibition properties. Type of assay: cell-based. The following applies: HEK cells expressing a truncated form of human NaV 1.8; electrical stimulation, membrane potential FRET dyes; read-out: measured IC50 value in the E-VIPR Assay. The text has this: E-VIPR Assay Detecting and Measuring NaV Inhibition Properties
Sodium ion channels are voltage-dependent proteins that can be activated by inducing membrane voltage changes by applying electric fields. […] The instrument comprises a microtiter plate handler, an optical system for exciting the coumarin dye while simultaneously recording the coumarin and oxonol emissions, a waveform generator, a current- or voltage-controlled amplifier, and parallel electrode pairs that are inserted into assay plate wells. Under integrated computer control, this instrument passes user-programmed electrical stimulus protocols to cells within the wells of the microtiter plate.
16-20 hours prior to running the assay on E-VIPR, HEK cells expressing a truncated form of human NaV 1.8 with full channel activity were seeded into microtiter 384-well plates, pre-coated with matrigel, at a density of 25,000 cells per well. 2.5-5% KIR2.1 BacMam virus was added to the final cell suspension before seeding into cell plates. […] Cells were expanded in 5-layer CellSTACK culture chambers or cell culture flasks with vented caps, with 90-95% humidity and 5% CO2.
• Bath 1 Buffer containing 0.5% 3-cyclodextrin (made fresh prior to each use, Sigma #C4767), […] CC2-DMPE and 2 μM DiSBAC6(3). The solution was made by adding 10% Pluronic F127 stock equal to combined volumes of CC2-DMPE and DiSBAC6(3).
The compound plate was backfilled with 45 μL per well of Compound Loading Buffer resulting in a 240-fold dilution of compound following a 1:1 transfer of compound into the cell plate (see Step 6). […] This assay dilution protocol was adjusted to enable a higher dose range to be tested in the presence of HS or if the final assay volume was altered. • 2) Hexyl Dye Solution was prepared. • 3) Cell plates were prepared. On the day of the assay, the media was aspirated, and the cells were washed three times with 80 μL of Bath-1 buffer, maintaining 25 μL residual volume in each well. • 4) 25 μL per well of Hexyl Dye Solution was dispensed into the cell plates. The cells were incubated for 20 minutes at room temperature or ambient conditions in darkness. • 5) 45 μL per well of Compound Loading Buffer was dispensed into compound plates. • 6) The cell plates were washed three times with 80 μL per well of Bath-1 Buffer, leaving 25 μL of residual volume. Then 25 µL per well from compound plate was transferred to each cell plate. The mixture was incubated for 30 minutes at room temperature/ambient conditions. • 7) The cell plate containing compound was read on E-VIPR using the current-controlled amplifier to deliver stimulation wave pulses using a symmetrical biphasic waveform. […] A pre-stimulus recording was performed for each well for 0.5 seconds to obtain the un-stimulated intensities baseline. The stimulatory waveform was followed by 0.5 seconds of post-stimulation recording to examine the relaxation to the resting state. All E-VIPR responses were measured at 200 Hz acquisition rate.
The response as a function of time was reported as the ratios obtained using the following formula: […]
The data were normalized by calculating the initial (Ri) and final (Rf) ratios. These were the average ratio values during part or all of the pre-stimulation period and during sample points during the stimulation period. The fluorescence ratio (Rf/Ri) was then calculated and reported as a function of time.
Control responses were obtained by performing assays in the presence of the positive control, and in the absence of pharmacological agents (DMSO vehicle negative control). Responses to the negative (N) and positive (P) controls were calculated as above. The compound antagonist % activity A was then defined as:
[formula] • where X is the maximum amplitude of the ratio response or number of action potential peaks, at the beginning of the pulse train in the presence of test compound.

For 27 molecules, IC50 results are on record in US20250388541A1, “HETEROARYL COMPOUNDS FOR THE TREATMENT OF PAIN” (VERTEX PHARMACEUTICALS INCORPORATED, priority 2022, published 2025).

Chain of human NaV 1.8 (Q9Y5Y9 126-399 limits assumed): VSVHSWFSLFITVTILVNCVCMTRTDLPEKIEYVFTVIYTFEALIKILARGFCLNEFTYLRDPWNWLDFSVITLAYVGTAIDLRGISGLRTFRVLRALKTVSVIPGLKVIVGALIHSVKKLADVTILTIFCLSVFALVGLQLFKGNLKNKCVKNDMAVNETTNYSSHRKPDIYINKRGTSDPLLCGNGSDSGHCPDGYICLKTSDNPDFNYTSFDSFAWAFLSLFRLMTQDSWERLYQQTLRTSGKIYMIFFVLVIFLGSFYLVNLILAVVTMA
Chain of human NaV 1.8 (Q9Y5Y9 660-890 limits assumed): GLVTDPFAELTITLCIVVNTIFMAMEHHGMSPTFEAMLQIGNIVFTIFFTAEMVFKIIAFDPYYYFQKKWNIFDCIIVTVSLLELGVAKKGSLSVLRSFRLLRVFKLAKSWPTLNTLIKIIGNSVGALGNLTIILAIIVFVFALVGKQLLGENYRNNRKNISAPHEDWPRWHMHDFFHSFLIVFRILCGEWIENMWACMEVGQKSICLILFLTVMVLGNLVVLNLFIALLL
Chain of human NaV 1.8 (Q9Y5Y9 1148-1722 limits assumed): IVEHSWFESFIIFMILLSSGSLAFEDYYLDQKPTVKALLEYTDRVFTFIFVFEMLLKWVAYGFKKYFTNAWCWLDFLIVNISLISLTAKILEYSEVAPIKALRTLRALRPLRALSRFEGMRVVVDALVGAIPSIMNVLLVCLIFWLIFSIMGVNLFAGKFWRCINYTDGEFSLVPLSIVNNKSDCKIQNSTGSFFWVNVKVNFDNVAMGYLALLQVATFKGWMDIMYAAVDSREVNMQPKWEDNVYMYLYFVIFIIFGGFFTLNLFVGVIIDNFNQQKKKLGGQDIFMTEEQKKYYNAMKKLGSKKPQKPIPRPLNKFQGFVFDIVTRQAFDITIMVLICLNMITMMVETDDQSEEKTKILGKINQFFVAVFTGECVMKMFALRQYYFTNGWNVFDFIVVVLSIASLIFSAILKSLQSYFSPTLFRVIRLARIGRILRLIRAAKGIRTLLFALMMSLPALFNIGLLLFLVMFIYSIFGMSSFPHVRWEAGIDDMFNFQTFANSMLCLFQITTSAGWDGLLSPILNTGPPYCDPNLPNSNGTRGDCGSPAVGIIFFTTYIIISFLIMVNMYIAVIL

For `Cc1cc(=O)c(C)c(-c2ccc(C(C)(C)C)cc2C)[nH]1` [Compound 75, 2-(4-tert-butyl-2-methyl-phenyl)-3,6-dimethyl-1H-pyridin-4-one], the IC50 (in general, the concentration needed to halve the response being measured) was in the range of 500 to 2000 nM.

As to `Cc1cc(=O)cc(-c2ccc(C3(C(F)(F)F)CC3)cc2C)[nH]1` [Compound 96, 2-methyl-6-[2-methyl-4-[1-(trifluoromethyl)cyclopropyl]phenyl]-1H-pyridin-4-one], the IC50 was in the range of 500 to 2000 nM.

Turning to `Cc1cc(C(C)(C)C)ccc1-c1cc(=O)c(NC(=O)[C@@H](C)N)c(C)[nH]1` [Compound 155, (2R)-2-amino-N-[6-(4-tert-butyl-2-methyl-phenyl)-2-methyl-4-oxo-1H-pyridin-3-yl]propanamide], the IC50 lay in the range of 500 to 2000 nM.

Take `Cc1cc(=O)cc(-c2c(C)cc(C(C)(C)C)cc2C)[nH]1` [Compound 3, 2-(4-tert-butyl-2,6-dimethyl-phenyl)-6-methyl-1H-pyridin-4-one]: the IC50 fell in the range of 500 to 2000 nM.

Turning to `COc1c(-c2ccc(C(C)(C)C)cc2C)[nH]c(C)cc1=O` [Compound 107, 2-(4-tert-butyl-2-methyl-phenyl)-3-methoxy-6-methyl-1H-pyridin-4-one], the half-inhibitory concentration (IC50) fell in the range of 500 to 2000 nM.

As to `Cc1cc(C(C)(C)C)c(Cl)cc1-c1cc(=O)c(-c2ncc[nH]2)c(C)[nH]1` [Compound 212, 6-(4-tert-butyl-5-chloro-2-methyl-phenyl)-3-(1H-imidazol-2-yl)-2-methyl-1H-pyridin-4-one], the half-maximal inhibitory concentration (IC50) was in the range of 500 to 2000 nM.

As for `Cc1cc(=O)c(C)c(-c2ccc(C3(C(F)(F)F)CC3)cc2)[nH]1` [Compound 78, 3,6-dimethyl-2-[4-[1-(trifluoromethyl)cyclopropyl]phenyl]-1H-pyridin-4-one], the IC50 fell in the range of 2000 to 5000 nM.

Turning to `Cc1[nH]c(-c2ccc(C3(C(F)(F)F)CC3)cc2)cc(=O)c1C` [Compound 82, 2,3-dimethyl-6-[4-[1-(trifluoromethyl)cyclopropyl]phenyl]-1H-pyridin-4-one], the concentration for half-maximal inhibition (IC50) was in the range of 500 to 2000 nM.

Turning to `Cc1cc(C(C)(C)C)ccc1-c1cc(=O)c(C2=CCNCC2)c(C)[nH]1` [Compound 205, 6-(4-tert-butyl-2-methyl-phenyl)-2-methyl-3-(1,2,3,6-tetrahydropyridin-4-yl)-1H-pyridin-4-one], the IC50 was in the range of 500 to 2000 nM.

In the case of `COc1cc(=O)cc(-c2ccc(C(C)(C)C)cc2C)[nH]1` [Compound 104, 2-(4-tert-butyl-2-methyl-phenyl)-6-methoxy-1H-pyridin-4-one], the IC50 lay within 2000 to 5000 nM.

With `Cc1cc(=O)c(C)c(-c2ccc(C(C)(C)C)cc2)[nH]1` [Compound 77, 2-(4-tert-butylphenyl)-3,6-dimethyl-1H-pyridin-4-one], the IC50 fell in the range of 500 to 2000 nM.

As for `Cc1cc(=O)cc(-c2ccc(C(C)C)cc2C(C)C)[nH]1` [Compound 43, 2-(2,4-diisopropylphenyl)-6-methyl-1H-pyridin-4-one], the half-maximal inhibitory concentration (IC50) is 2000 to 5000 nM.

With `Cc1[nH]c(-c2ccc(C(C)(C)C)cc2)cc(=O)c1C` [Compound 79, 6-(4-tert-butylphenyl)-2,3-dimethyl-1H-pyridin-4-one], the 50% inhibitory concentration (IC50) was 500 to 2000 nM.

Consider `Cc1nc(-c2ccc(C(C)(C)C)cc2C)cc(=O)[nH]1` [Compound 83, 4-(4-tert-butyl-2-methyl-phenyl)-2-methyl-1H-pyrimidin-6-one], for which the IC50 lay in the range of 2000 to 5000 nM.

Take `CCOc1c(-c2ccc(C(C)(C)C)cc2C)[nH]c(C)cc1=O` [Compound 106, 2-(4-tert-butyl-2-methyl-phenyl)-3-ethoxy-6-methyl-1H-pyridin-4-one]: the IC50 fell in the range of 500 to 2000 nM.

In the case of `Cc1cc(C(C)(C)C)c(Cl)cc1-c1cc(=O)c(S(=N)(=O)C(C)C)c(C)[nH]1` (stereo not drawn) [Compound 145, 6-(4-tert-butyl-5-chloro-2-methyl-phenyl)-3-(isopropylsulfonimidoyl)-2-methyl-1H-pyridin-4-one], the half-maximal inhibitory concentration (IC50) was 500 to 2000 nM.

Consider `CC(=O)Nc1c(C)[nH]c(-c2ccc(C(C)(C)C)cc2C)cc1=O` [Compound 157, N-[6-(4-tert-butyl-2-methyl-phenyl)-2-methyl-4-oxo-1H-pyridin-3-yl]acetamide], for which the IC50 is 500 to 2000 nM.

With `Cc1cc(C(C)(C)C)ccc1-c1cc(=O)c(CN)c(C)[nH]1` [Compound 154, 3-(aminomethyl)-6-(4-tert-butyl-2-methyl-phenyl)-2-methyl-1H-pyridin-4-one], the IC50 lay in the range of 500 to 2000 nM.

As for `COc1nc2ccccc2cc1-c1cc(=O)c(C)c(C)[nH]1` [Compound 95, 6-(2-methoxy-3-quinolyl)-2,3-dimethyl-1H-pyridin-4-one], the IC50 fell in the range of 2000 to 5000 nM.

As to `CCOC(=O)c1c(-c2c(C)cc(C(C)(C)C)cc2C)[nH]c(C)c(C)c1=O` [Compound 98, ethyl 2-(4-tert-butyl-2,6-dimethyl-phenyl)-5,6-dimethyl-4-oxo-1H-pyridine-3-carboxylate], the concentration for half-maximal inhibition (IC50) was in the range of 500 to 2000 nM.

As for `Cc1cc(C(C)(C)C)ccc1-c1cc(=O)c(NC(=O)[C@H](C)N)c(C)[nH]1` [Compound 156, (2S)-2-amino-N-[6-(4-tert-butyl-2-methyl-phenyl)-2-methyl-4-oxo-1H-pyridin-3-yl]propanamide], the half-inhibitory concentration (IC50) lay in the range of 2000 to 5000 nM.

In the case of `Cc1cc(C(C)(C)C)ccc1-c1cc(=O)c(C2=CCN(C)CC2)c(C)[nH]1` [Compound 174, 6-(4-tert-butyl-2-methyl-phenyl)-2-methyl-3-(1-methyl-3,6-dihydro-2H-pyridin-4-yl)-1H-pyridin-4-one], the IC50 is 2000 to 5000 nM.

`COCn1ccnc1-c1c(C)[nH]c(-c2cc(Cl)c(C(C)(C)C)cc2C)cc1=O` [Compound 201, 6-(4-tert-butyl-5-chloro-2-methyl-phenyl)-3-[1-(methoxymethyl)imidazol-2-yl]-2-methyl-1H-pyridin-4-one]: the IC50 fell in the range of 2000 to 5000 nM.

For `Cc1cc(C(C)(C)C)ccc1-c1cc(=O)cc(N(C)C)[nH]1` [Compound 100, 2-(4-tert-butyl-2-methyl-phenyl)-6-(dimethylamino)-1H-pyridin-4-one], the IC50 was in the range of 500 to 2000 nM.

Regarding `Cc1cc(C(C)(C)C)c(Cl)cc1-c1cc(=O)c(-c2cn(C)c(C)n2)c(C)[nH]1` [Compound 197, 6-(4-tert-butyl-5-chloro-2-methyl-phenyl)-3-(1,2-dimethylimidazol-4-yl)-2-methyl-1H-pyridin-4-one], the 50% inhibitory concentration (IC50) was in the range of 500 to 2000 nM.

Regarding `Cc1cc(C(C)(C)C)ccc1-c1cc(=O)c(-c2cccnc2C#N)c(C)[nH]1` [Compound 172, 3-[6-(4-tert-butyl-2-methyl-phenyl)-2-methyl-4-oxo-1H-pyridin-3-yl]pyridine-2-carbonitrile], the concentration for half-maximal inhibition (IC50) is 500 to 2000 nM.

For the molecule `Cc1cc(C(C)(C)C)ccc1-c1cc(=O)c(C2CCN(C)CC2)c(C)[nH]1` [Compound 204, 6-(4-tert-butyl-2-methyl-phenyl)-2-methyl-3-(1-methyl-4-piperidyl)-1H-pyridin-4-one], the IC50 lay in the range of 500 to 2000 nM.
